Results published in patent publication US12077538B2, “Diacylglycerol kinase (DGK) alpha inhibitors and uses thereof” (priority 2022, dated 2024).

system: Human Pan T cells; test: IL-2 Release Detection Assay; assay type: cell-based; settings: T-cell, IL-2 in supernatant by ELISA, anti-CD3 pre-coated plate, 24 hours
Description: Add dilutions of compounds into the cells and incubate at 37° C. &5% CO2 for 24 hours. IL-2 in cell supernatant was detected by ELISA Kit (R&D, DY202). […] Top and Bottom: Plateaus in same units as Y. Log EC50: same log units as X. Activation fold: Top activation/DMSO control. Activation % at 100 nM: Activation of non-linear regression equation curve at the concentration of 100 nM/DMSO control*100%.

SMILES | EC50
Cc1ccc2oc(C3CCN(c4cc(=O)n(C)c5ccc(C#N)nc45)CC3)nc2c1 [Example 1, 5-methyl-8-(4-(5-methylbenzo[d]oxazol-2-yl)piperidin-1-yl)-6-oxo-5,6-dihydro-1,5-naphthyridine-2-carbonitrile] | 452 nM
Cc1ccc2oc(C3CCN(c4cc(=O)n(C)c5ccc(Cl)cc45)CC3)nc2c1 [Example 2, 6-chloro-1-methyl-4-(4-(5-methylbenzo[d]oxazol-2-yl)piperidin-1-yl)quinolin-2(1H)-one] | 326 nM
Cc1ccc2oc(C3CCN(c4cc(=O)n(C)c5ccc(C#N)cc45)CC3)nc2c1 [Example 3, 1-methyl-4-(4-(5-methylbenzo[d]oxazol-2-yl)piperidin-1-yl)-2-oxo-1,2-dihydroquinoline-6-carbonitrile] | 174 nM
Cc1ccc2oc(C3CCN(c4nc(=O)n(C)c5ccc(Cl)cc45)CC3)nc2c1 [Example 4, 6-chloro-1-methyl-4-(4-(5-methylbenzo[d]oxazol-2-yl)piperidin-1-yl)quinazolin-2(1H)-one] | 200 nM
Cc1ccc2oc(C3CCN(c4c(C#N)c(=O)n(C)c5ccc(Cl)nc45)CC3)nc2c1 [Example 9, 6-chloro-1-methyl-4-(4-(5-methylbenzo[d]oxazol-2-yl)piperidin-1-yl)-2-oxo-1,2-dihydro-1,5-naphthyridine-3-carbonitrile] | 476 nM
Cc1ccc2oc(C3CCN(c4cc(=O)n(C)c5ccc(Cl)nc45)CC3)nc2c1 [Example 10, 6-chloro-1-methyl-4-(4-(5-methylbenzo[d]oxazol-2-yl)piperidin-1-yl)-1,5-naphthyridin-2(1H)-one] | 1250 nM
Cn1c(=O)cc(N2CCC(c3nc4cc(F)ccc4o3)CC2)c2nc(Cl)ccc21 [Example 11, 6-chloro-4-(4-(5-fluorobenzo[d]oxazol-2-yl)piperidin-1-yl)-1-methyl-1,5-naphthyridin-2(1H)-one] | 832 nM
Cn1c(=O)cc(N2CCC(c3nc4cc(F)ccc4o3)CC2)c2nc(C#N)ccc21 [Example 12, 8-(4-(5-fluorobenzo[d]oxazol-2-yl)piperidin-1-yl)-5-methyl-6-oxo-5,6-dihydro-1,5-naphthyridine-2-carbonitrile] | 262 nM
COCCOc1cc2c(nc1Cl)c(N1CCC(c3nc4cc(C)ccc4o3)CC1)cc(=O)n2C [Example 15, 6-chloro-7-(2-methoxyethoxy)-1-methyl-4-(4-(5-methylbenzo[d]oxazol-2-yl)piperidin-1-yl)-1,5-naphthyridin-2(1H)-one] | 963 nM
COCCOc1cc2c(nc1C#N)c(N1CCC(c3nc4cc(C)ccc4o3)CC1)cc(=O)n2C [Example 16, 3-(2-methoxyethoxy)-5-methyl-8-(4-(5-methylbenzo[d]oxazol-2-yl)piperidin-1-yl)-6-oxo-5,6-dihydro-1,5-naphthyridine-2-carbonitrile] | 346 nM
Cc1ccc2oc(C3CCN(c4cc(=O)n(C)c5cc(NCCO)c(Cl)nc45)CC3)nc2c1 [Example 17, 6-chloro-7-((2-hydroxyethyl)amino)-1-methyl-4-(4-(5-methylbenzo[d]oxazol-2-yl)piperidin-1-yl)-1,5-naphthyridin-2(1H)-one] | 1200 nM
Cc1ccc2oc(C3CCN(c4cc(=O)n(C)c5cc(NCCO)c(C#N)nc45)CC3)nc2c1 [Example 18, 3-((2-hydroxyethyl)amino)-5-methyl-8-(4-(5-methylbenzo[d]oxazol-2-yl)piperidin-1-yl)-6-oxo-5,6-dihydro-1,5-naphthyridine-2-carbonitrile] | 123 nM
Cc1ccc2oc(C3CCN(c4cc(=O)n(C)c5cc(OC6CCOC6)c(C#N)nc45)CC3)nc2c1 (stereo not drawn) [Example 21, 5-methyl-8-(4-(5-methylbenzo[d]oxazol-2-yl)piperidin-1-yl)-6-oxo-3-((tetrahydrofuran-3-yl)oxy)-5,6-dihydro-1,5-naphthyridine-2-carbonitrile] | 132 nM
Cc1ccc2oc(C3CCN(c4cc(=O)n(C)c5cc(OCCO)c(C#N)nc45)CC3)nc2c1 [Example 23, 3-(2-hydroxyethoxy)-5-methyl-8-(4-(5-methylbenzo[d]oxazol-2-yl)piperidin-1-yl)-6-oxo-5,6-dihydro-1,5-naphthyridine-2-carbonitrile] | 294 nM
Cc1ccc2oc(C3CCN(c4cc(=O)n(C)c5cc(OCCCO)c(C#N)nc45)CC3)nc2c1 [Example 24, 3-(3-hydroxypropoxy)-5-methyl-8-(4-(5-methylbenzo[d]oxazol-2-yl)piperidin-1-yl)-6-oxo-5,6-dihydro-1,5-naphthyridine-2-carbonitrile] | 512 nM
Cc1ccc2oc(C3CCN(c4cc(=O)n(C)c5cc(O[C@H]6CCOC6)c(C#N)nc45)CC3)nc2c1 [Example 29, (S)-5-methyl-8-(4-(5-methylbenzo[d]oxazol-2-yl)piperidin-1-yl)-6-oxo-3-((tetrahydrofuran-3-yl)oxy)-5,6-dihydro-1,5-naphthyridine-2-carbonitrile] | 446 nM
Cc1ccc2oc(N3CC=C(c4cc(=O)n(C)c5cc(OCCO)c(C#N)nc45)CC3)nc2c1 [Example 30, 3-(2-hydroxyethoxy)-5-methyl-8-(1-(5-methylbenzo[d]oxazol-2-yl)-1,2,3,6-tetrahydropyridin-4-yl)-6-oxo-5,6-dihydro-1,5-naphthyridine-2-carbonitrile] | 682 nM

system: not listed separately; test: Pharmacokinetic Profile Evaluation (mouse PK); assay type: in vivo, CD-1 mice; settings: CD-1, plasma, oral administration at 5 mg/kg, read-out: AUC00~∞
Description: Species and strain: CD-1 mice of SPF. Source: Sino-British SIPPR/BK Lab Animal Ltd, Shanghai. 3 mice were intravenously administrated with given compounds (Formulation: 5% DMSO+10% Solutol+85% Saline) or orally gavage administrated with given compounds (Formulation: 5% DMSO+10% Solutol+85% Saline). The blood samples were taken via cephalic vein at timepoints 0.083 h, 0.25 h, 0.5 h, 1 h, 2 h, 4 h, 8 h and 24 h after intravenous administration or at timepoints 0.25 h, 0.5 h, 1 h, 2 h, 4 h, 6 h, 8 h and 24 h after oral gavage administration, 30 μL/time point. Blood samples were placed in tubes containing K2-EDTA and stored on ice until centrifuged. The blood samples were centrifuged at 6800 g for 6 minutes at 2-8° C. within 1 h after collected and stored frozen at approximately −80° C. An aliquot of 10 μL plasma samples were protein precipitated with 200 μL MeOH in which contains 10 ng/mL Verapamil (IS). The mixture was vortexed for 1 min and centrifuged at 18000 g for 7 min. Transfer 180 μL supernatant to 96 well plates. An aliquot of 6 μL supernatant was injected for LC-MS/MS analysis by LC-MS/MS-04 (API4000) instrument. The analytical results were confirmed using quality control samples for intra-assay variation. The accuracy of >66.7% of the quality control samples should be between 80-120% of the known value(s). Standard set of parameters including Area Under the Curve (AUC(0-t) and AUC(0-∞)), elimination half-live (T1/2), maximum plasma concentration (Cmax), will be calculated using noncompartmental analysis modules in FDA certified pharmacokinetic program Phoenix WinNonlin 7.0 (Pharsight, USA).

SMILES | AUC
Cc1ccc2oc(C3CCN(c4cc(=O)n(C)c5ccc(C#N)nc45)CC3)nc2c1 [Example 1, 5-methyl-8-(4-(5-methylbenzo[d]oxazol-2-yl)piperidin-1-yl)-6-oxo-5,6-dihydro-1,5-naphthyridine-2-carbonitrile] | 6150 ng·h/mL
Cn1c(=O)cc(N2CCC(c3nc4cc(F)ccc4o3)CC2)c2nc(C#N)ccc21 [Example 12, 8-(4-(5-fluorobenzo[d]oxazol-2-yl)piperidin-1-yl)-5-methyl-6-oxo-5,6-dihydro-1,5-naphthyridine-2-carbonitrile] | 5940 ng·h/mL
Cc1ccc2oc(C3CCN(c4cc(=O)n(C)c5cc(OCCO)c(C#N)nc45)CC3)nc2c1 [Example 23, 3-(2-hydroxyethoxy)-5-methyl-8-(4-(5-methylbenzo[d]oxazol-2-yl)piperidin-1-yl)-6-oxo-5,6-dihydro-1,5-naphthyridine-2-carbonitrile] | 12100 ng·h/mL
Cc1ccc2oc(C3CCN(c4cc(=O)n(C)c5cc(O[C@@H]6CCOC6)c(C#N)nc45)CC3)nc2c1 [Example 28, (R)-5-methyl-8-(4-(5-methylbenzo[d]oxazol-2-yl)piperidin-1-yl)-6-oxo-3-((tetrahydrofuran-3-yl)oxy)-5,6-dihydro-1,5-naphthyridine-2-carbonitrile] | 3460 ng·h/mL
